Series [1] in a line: Solubility to fluorine-based solvent (Vertrel XF), 1.0/0.5/0.1 parts by mass added. The following applies: Vertrel XF [CF3(CHF)2CF2CF3], 25° C., ultrasonic waves 5 minutes, left 1 day, visual observation; 0.5 and 0.1 parts by mass per 100 parts. The procedure:
Then, the resultant was left to stand for 1 day and solubility thereof was visually observed.
Then, the resultant was left to stand for 1 day and solubility thereof was visually observed, followed by evaluation based on the following evaluation criteria.
[Evaluation Criteria] • 0.5% by mass or more:
When 0.5 parts by mass of the ionic liquid was added, dissolution was found. • 0.1% by mass or more but less than 0.5% by mass:
When 0.5 parts by mass of the ionic liquid was added, no dissolution was found. However, when 0.1 parts by mass of the ionic liquid was added, dissolution was found. • Less than 0.1% by mass:
When 0.5 parts by mass of the ionic liquid was added, no dissolution was found. Moreover, when 0.1 parts by mass of the ionic liquid was added, no dissolution was found.

The nature of series [2]: Thermal stability, TG/DTA measurement. The note with it: air 200 mL/min, 30° C. to 600° C., heating rate 10° C./min.

On to `CCCCCCCCCCCCCCCCCCC1CCCCN2CCCN=C12.O=S1(=O)NS(=O)(=O)C(F)(F)C(F)(F)C1(F)F` (centres unmarked) [Comparative Example 4A, hexafluorocyclopropane-1,3-bis(sulfonyl)imide-6-octadecyl-1,8-diazabicyclo[5.4.0]-7-undecenium, reference compound], for which, in series [1], the Fluorine-based solvent solubility result is “Less than 0.1% by % by mass”. Besides, in series [2], the “Weight reduction temperature 5%” value came to 346.3 °C, the “Weight reduction temperature 10%” value was determined as 384.1 °C and the “Weight reduction temperature 20%” value turned out to be 414.0 °C.

For the compound “pentadecafluorooctanoic acid octadecylammonium [Comparative Example 5A, reference compound]”, in series [1], the Fluorine-based solvent solubility entry is recorded as “Less than 0.1% by % by mass”. In series [2], the “Weight reduction temperature 5%” value is 206.9 °C, the “Weight reduction temperature 10%” value worked out at 215.8 °C and the “Weight reduction temperature 20%” value came out at 223.4 °C.

(Values after patent publication US20190051326A1, “Ionic Liquid, Lubricant, and Magnetic Recording Medium” (priority 2016, published 2019).)
